From PMC6448587 (Biochemistry, 2019)
Where two headings read alike, the source gives them in different places. Values belong to the compound of their own block, whether it stands above or below them.

Assays:
[1] = molecular target: T1, Δ3–22 human CYP3A4 (WT) (Homo sapiens, UniProt P08684)
[2] = test system: CYP3A4; settings: ref 39 (Godamudunage et al.); cited from earlier work
[3] = test system: Candida albicans CYP51; settings: read-out: Kd for Candida albicans CYP51; cited from earlier work
[4] = test system: Candida albicans CYP51; settings: read-out: IC50 for Candida albicans CYP51; cited from earlier work
[5] = molecular target: CYP3A4 (Homo sapiens, UniProt P08684); settings: human, probe 7-benzyloxy-4-(trifluoromethyl)coumarin (BFC)
[6] = molecular target: T2, S119A mutant of CYP3A4 (Homo sapiens, UniProt P08684, S119A)
[7] = molecular target: T3, R212A mutant of CYP3A4 (Homo sapiens, UniProt P08684, R212A)
[8] = molecular target: T1, Δ3–22 human CYP3A4 (WT); experiment: biochemical
[9] = molecular target: T2, S119A mutant of CYP3A4; experiment: biochemical
[10] = molecular target: T3, R212A mutant of CYP3A4; experiment: biochemical
[11] = molecular target: T4, full-length human CYP3A4 (Homo sapiens, UniProt P08684)
[12] = molecular target: T4, full-length human CYP3A4; remark: listed apart in the source
[13] = pH 7.5; cited from earlier work

SMILES: OC(Cn1cncn1)(Cn1cncn1)c1ccc(F)cc1F [Fluconazole]
Type of spectral changes induced during equilibrium titrations ([1]; WT CYP3A4): […] | IC50 [2]: […] | Kd [3]: 0.047 µM | IC50 [4]: 0.6 to 1.2 µM | IC50 [5]: 21 µM

Type of spectral changes induced during equilibrium titrations ([1]; WT CYP3A4): type II | Decrease in ΔAmax relative to WT ([6]; S119A vs WT): 9% | Increase in Ks relative to WT ([6]; S119A vs WT): 42% | Decrease in Ks relative to WT ([7]; R212A vs WT): 33% | Decrease in ΔAmax relative to WT ([7]; R212A vs WT): 6% | Kd [8]: 2.4 ± 0.1 µM | Kd [9]: 3.4 ± 0.1 µM | Kd [10]: 1.6 ± 0.1 µM | IC50 [11]: 18 ± 2 µM | IC50 estimate relative to that for microsomal CYP3A4 (fold higher) ([11]; reconstituted system vs microsomal CYP3A4 (ref 21)): 3 fold
SMILES: CC(C)(C(=O)c1cccnc1)c1cccnc1 [Metyrapone]

Fold lower affinity for CYP3A4 than PMSF [1]: ~ 6 fold | Type of spectral changes induced during equilibrium titrations [1]: type I | Kd ([1]; pH 7.4): 15400 ± 2060 µM | Spectral changes in the presence of ligand [6]: neither mutant exhibits spectral changes | Spectral changes in the presence of ligand [7]: neither mutant exhibits spectral changes | Effect on CYP3A4 activity (inhibitory assays), in words [12]: only negligibly affects CYP3A4 activity | IC50 [12]: > 20000 µM
SMILES: O=S(=O)(O)Cc1ccccc1 [PMSA, phenylmethanesulfonic acid]

SMILES: O=S(=O)(F)Cc1ccccc1 [PMSF, phenylmethylsulfonyl fluoride]
Type of spectral changes induced during equilibrium titrations ([1]; WT CYP3A4): type I | High-spin shift relative to WT ([6]; S119A variant): ~ 30 % of WT | Fold decrease in binding affinity by mutation ([6]; S119A vs WT): 4 fold | Fold decrease in binding affinity by mutation ([7]; R212A vs WT): 4 fold | t1/2 in aqueous solutions [13]: 55 min
